Measurements published in patent publication US5132424A, “Pyrazolo-pyrrolo-pyrimidine-diones” (The Upjohn Company, priority 1991, dated 1992).

Columns and labels:
[1] = tested on: Moderately Hypercholesterolemic Quail; assay: In vivo testing in moderately hypercholesterolemic quail (serum LDL cholesterol); design: species or system Japanese quail; settings: compound in diet, two weeks
Text: Male SEA Japanese quail, approximately four to six weeks of age, were reared at Miles Quail Farm, Gobles, Mich. from a colony of animals originally derived at The Upjohn Company. Birds were randomly distributed into ten groups of ten quail each. They were house individually in ten cage units and fed a commercial diet (Purina Game Bird Layena, Ralston Purina Co., St. Louis, Mo.) mixed with various amounts of cholesterol with and without 1% peanut oil. Compounds were mixed into 2.4 kg of the diet using a feed mixer (Hobard A-200) for twenty minutes. Control groups received normal diet. In one series of experiments birds were fed 0.5% cholesterol/1% peanut oil plus colestipol hydrochloride. After two weeks on the diets, each bird was bled from the right jugular vein and serum samples were obtained after low speed centrifugation. Food intake was determined for each group by subtracting the weight of diet remaining at the end of the experiment from the weight of the starting diet.
Beta- and alpha-lipoproteins were isolated from individual serum samples using PEG-8000 and glycerine buffer, pH 9 (9). Three hundred microliters of serum were mixed with 300 microliters of solution. A (20 grams of PEG-8000 plus 100 ml of glycerine buffer, pH 9) using a Micromedic automatic pipet. Samples were allowed to stand at room temperature for ten minutes and then were centrifuged for twenty minutes at 2000× g at 4° C. The beta-lipoprotein pellet was dissolved in 300 microliters of solution B (10 ml Triton X-100 plus 1000 ml Milli Q water). Cholesterol, triglycerides and total protein in alpha- and beta-lipoproteins were measured using the Deman Autoanalyzer, Model AU 500 (Cooper Biomedical Inc.) and Worthington Demand Enzymatic reagents.
All data were statistically analyzed using a one-way classification design. Values were transformed to logarithms to achieve more homogenous within-group variances. The mean response for each diet and for the effect was compared with the mean observed in the control animals by the LSD test. Treated/control ratios of antilogs of the log means are also presented.

ACAT enzyme [2] = assay: ACAT Inhibition Assay (inhibition of cholesterol esterification in cultured Fu5AH rat hepatoma cells); assay type: cell-based; design: key to Activity: Active: Compounds with ACAT inhibiting activity equal to, or greater than, that of chloropromazine are declared active; settings: for % Inhib. of Chol. Esterf.: Fu5AH cells, 18 hours; for Activity: compared with chlorpromazine
Text: A standard in vitro test system designed to identify compounds capable of inhibitory the ACAT enzyme in cultured Fu5AH rat hepatoma cells which was used to test the compounds of this invention, among others, is described hereinbelow.
Since the ACAT enzyme in Fu5AH cells is similar if not identical to the ACAT enzyme in arterial tissue in valuable, warm-blooded animals, including humans, the Fu5AH cell test represents a more efficient, simplified and economical means of screening for ACAT inhibitors than similar assays which depend upon the use of arterial tissue and arterial subfractions as the source of the ACAT enzyme.
For our in vitro test the Fu5AH rat hepatoma cell line was selected as our source of the ACAT enzyme since this particular cell line mimicked important characteristics of human and valuable animal arterial cells during the development of atherosclerosis. The Fu5AH cells accumulate cholesterol extensively when incubated with hyperlipemic plasma proteins; more importantly, Fu5HA cells accumulated the cholesterol predominantly as the esterified form through the action of the ACAT enzyme. See Rothblat, G. H., "Cholesteryl Ester Metabolism in Tissue Culture Cell. I. Accumulation in Fu5AH Rat Hepatoma Cells", Lipids, 9, (1974) page 526.
The Fu5AH cells used in our in vitro assay were first acquired from G. H. Rothblat, supra, of the Medical College of Pa.
The Fu5AH rat hepatoma cell-line was derived from the Reuber H-35 rat hepatoma. (See Reuber, M.D., "A Transplantable Bilesecreting Hepatocellular Carcinoa in the Rat", J. Natl., Cancer Inst., 26 (1961), page 891. The cell-line is maintained in Eagle's Minimal Essential Medium (MEM, GiBCO) supplemented with 5% bovine fetal calf serum. Incubation is at 36° C. in an atmosphere of 5% CO2 in air (Hotpack, Model 351922). Cells from stock cultures, grown to confluency in 25 cm^2 flasks (Falcon) containing 10 ml. medium, are detached with 0.25% trypsin in 1% ethylenediaminetetraacetic acid (EDTA) (Gibco), diluted 1:10 with MEM and mixed by agitation through a pipette which serves to disrupt the cellular clumps. Stock cultures are replenished with fresh medium at 3 to 4 day intervals.
One ml. aliquots of the diluted stock suspension described above are then transferred to 60 mm. dishes (Falcon) containing four ml. MEM and the seeded cells are allowed to grow to confluence (three days). At confluence, the medium is removed by aspiration and the cells are washed once with MEM. Five ml. of MEM supplemented with 5% hyperlipemic rabbit serum (HRS) (HRS is obtained from male New Zealane rabbits fed Purina Chow® rabbit feed supplemented with 1% cholesterol and 3% peanut oil (w/w/w/) for two to three weeks. Pooled sera from two or more rabbits are filtered through a 0.45 mμ filter (Nalgene) and stored frozen in convenient aliquots until used) and containing 1μ Ci/ml of ^3 H-cholesterol are then added to the dishes as the experimental (assay) medium. The experimental medium is labeled with 1,2-^3 H(N)-cholesterol (sp. act. approx. 40-60 Ci/mol, New Zealand Nuclear Corp.) prior to its addition to the confluent cultures and is prepared as follows. Five ml. of HRS is diluted with approximately 20 ml of MEM and the mixture is labeled by the addition of 100 μCi ^3 H-cholesterol dissolved in 100 μl absolute ethyl alcohol. The resulting mixture is then incubated for four hours at 36° C. to permit equilibration of the labeled cholesterol with the serum lipoprotein-cholesterol. After the equilibration period, the mixture is diluted to 100 ml. with MEM and used as the labeled assay medium. Following the addition of the labeled medium to the dishes, dimethylsulfoxide solutions of the test substances and the positive standard chloropromazine HCl (1 mg/ml) are added to the cultures in volumes of 25, 50, […]; control cultures receive equivalent volumes of dimethylsufoxide alone. […]

ACAT enzyme [3] = settings: known drug; cited from earlier work
membranes = settings: known drug; cited from earlier work
[4] = tested on: blood platelet aggregation; settings: known drug; cited from earlier work

Structure (SMILES) | Percent Change in Serum LDL Cholesterol From Control [1] | % Inhib. of Chol. Esterf. (ACAT enzyme [2]; 5.0 ug/ml) | Activity (ACAT enzyme [2]; 5.0 ug/ml) | % Inhib. of Chol. Esterf. (ACAT enzyme [2]; 10.0 ug/ml) | Activity (ACAT enzyme [2]; 10.0 ug/ml) | % Inhib. of Chol. Esterf. (ACAT enzyme [2]; 15.0 ug/ml) | Activity (ACAT enzyme [2]; 15.0 ug/ml) | potency for ACAT enzyme inhibition (in words) (ACAT enzyme [2]; among the compounds of Table I) | ACAT enzyme inhibition (in words) (ACAT enzyme [3]) | change of membrane fluidity (in words) (membranes) | blood platelet aggregation inhibition (in words) [4]
C=CCCCCn1c2c(c(=O)n3nc(-c4ccccc4)cc13)CN(C1CCCCC1)C2=O [Example 1, 6-Cyclohexyl-4-(5-hexenyl)-6,7-dihydro-2-phenyl-4H-pyrazolo[1,5-a]pyrrolo[3,4-d]pyrimidine-5,8-dione] | -42% | 68.6% | Active | 93.2% | Active | 96.1% | Active | – | – | – | –
O=C1c2c(c(=O)n3nc(-c4ccccc4)cc3n2Cc2ccccc2)CN1C1CCCCC1 [Example 2, 6-Cyclohexyl-6,7-dihydro-2-phenyl-4-(phenylmethyl)-4H-pyrazolo[1,5-a]pyrrolo[3,4-d]pyrimidine-5,8-dione] | -50% | 60.1% | Active | 87.7% | Active | 93.6% | Active | – | – | – | –
O=C(Cn1c2c(c(=O)n3nc(-c4ccccc4)cc13)CN(C1CCCCC1)C2=O)c1ccccc1 [Example 4, 4-(Benzoylmethyl)-6-cyclohexyl-6,7-dihydro-2-phenyl-4H-pyrazolo[1,5-a]pyrrolo-[3,4-d]pyrimidine-5,8-dione] | -59% | 88.6% | Active | 92.2% | Active | 91.9% | Active | most potent compound | – | – | –
CN(C)CCCN1c2ccccc2Sc2ccc(Cl)cc21 [chlorpromazine] | – | – | – | – | – | – | – | – | ACAT enzyme inhibitor | change the fluidity of membranes | blood platelet aggregation inhibition properties
